The source of these data is patent US7271239B2, “D-isomers of antimicrobial peptide” (The Research Foundation of State University of New York, priority 2004, dated 2007).

Where two headings read alike, the source gives them in different places. Where no end group is shown, it is not given here.

The test system of one series is C. glabrata ATCC90030. The series can be described thus: Killing assay in clarified saliva. The class given is cell-based. The text has this:
(§1) Killing assays in saliva. […] Saliva without peptides was a blank control.
(§2) Activity of peptides in saliva against different candida strains. The in vitro candidacidal activities of MUC7 12-mer-L and D, Hsn5 12-mer, and Magainin-II against four Candida strains in clarified saliva are shown in Table 1. The data are presented as percent loss of cell viability compared to non-treated control. The following observations were made. […] In the presence of PIC, the activity values of MUC7 12-mer-L and of Magainin-II rose close to a 100% for all strains, but not that of Hsn5 peptide, which achieved the similar activity only against the C. albicans (ATCC strain). The activities against the other strains were much lower, in particular against both strains of C. glabrata (30-40%). […] This was true especially in saliva without PIC.

In another series the test system is C. albicans ATCC96112. The series can be described thus: Killing assay in clarified saliva. It is filed as cell-based.
Text: as §1, §2

The next series has as its system C. krusei. The series can be described thus: Killing assay in clarified saliva. The class given is cell-based.
Text: as §1, §2

Another series concerns S. mutans GS-5. The series can be described thus: Time-kill assay. It is filed as cell-based, Streptococcus mutans. The note with it: after 4 h incubation, each agent at its MIC. The protocol:
FIG. 10. Time-Killing curves for S. mutans. […] Control (▪), MUC7 12-mer-L (Δ), MUC7 12-mer-D (□), MUC7 20-mer (▴), Hsn5 12-mer (×), magainin II (●), chlorhexidine (◯).
For the peptides MUC7 12-mer-L, MUC7 12-mer-D, and MUC7 20-mer, time-kill kinetic studies against S. mutans were performed by the broth macrodilution method. S. mutans GS-5 (1×10^6 CFU/ml) and antibacterial agens (find concentrations of 12.5 μM for each peptide, and 2 μM for CHX; their MICs) were incubated in 25% BHI at 37° C. At the time of 0, 1, 2, 4, 8, and 24 h, samples were taken and viable counts determined as follows: The samples were serially diluted (10^−1 to 10^−4) in sterile 10 mM PBS (pH 7.2) and 50 μl aliquots were plated onto TSBY agar. The plates were incubated anaerobically at 37° C. for 48 h, followed by enumerating the CFU. Killing curves were constructed by plotting the log10 CFU per milliliter versus time over 24 h. All assays were done in duplicate on at least two occasions.

Another series concerns Erythrocytes. The conditions noted are these: determined previously (5), cited from earlier work.
Another series relates to C. albicans strain DIS. The class given is in vivo, mice ICR strain. The conditions noted are these: mouse, in vivo. The protocol: A previously described protocol was adopted (14). Mice were immunosuppressed with two subcutaneous injections of prednisolone at a dose of 100 mg/kg body weight 1 day prior to and 3 days after the infection with C. albicans. Tetracycline hydrochloride in drinking water at a concentration of 0.83 mg/ml was given to mice beginning 1 day before infection. Mice were anesthetized by intramuscular injection with 60 μl of 2 mg/ml chlorpromazine chloride, using a dose of 10 mg/kg body weight of mice. While under anesthesia, a small cotton ball soaked in 0.1 ml aliquot of C. albicans cell suspension (2.5×10^6 cells) was used to swab the entire oral cavity of the anesthetized mice.
Visual evaluation was done by carefully extending the tongue of randomly picked mice using blunt-end forceps, while the mice were under isoflurane sedation. Presence of thick, white curd-like patches indicated candidal infection. At day 3 post-infection, all animals were examined for evidence oral candidal infection by microbiological evaluation. The entire oral cavity of anesthetized mice was swabbed using a sterile calcium alginate disposable swab (Fisher Scientific), dampened with sterile PBS. Cells were then released from the swab into 1 ml PBS. Serial 10-fold dilutions were plated on SDA plates supplemented with streptomycin (30 μg/ml). Plates were incubated for 24 h at 37° C. and yeast cell count expressed as log10 of cfu/ml.
Tongues from sacrificed animals were used for histological studies. They were fixed in 10% formalin and embedded in paraffin. Serial five-μm sections were cut from the paraffin block and stained with periodic acid-Schiff (PAS) reagent for detection of C. albicans.
Mice were randomly divided into various treatment groups with 8 mice per group. Antifungal agents were employed on an equimolar basis, and included amphotericin B (1.75%), clotrimazole (0.66%), MUC7 12-mer (RKSYKCLHKRCR—SEQ ID NO:1) (L; 3%), MUC7 12-mer (D; 3%), MUC7 12-mer (D; 3%) containing Na2EDTA (1 mM), MUC7 12-mer (L; 3%) containing protease inhibitor cocktail (PIC) (1%), and Hsn5 12-mer (AKRHHGYKRKFH—SEQ ID NO:2) (3%). They were all emulsified in Pluronic F127, (20% lipoil), a polymer of polyoxyethylene and polyoxypropylene (non-ionic surfactant). Animals were anesthetized using isoflurane; while sedated, about 30 to 40 μl of the antifungal emulsion was applied on the tongue and spread throughout oral cavity. The treated mice were under sedation for additional 5 min under isoflurane. Animals were not given access to food and water for 1 h following the application.
Fungal burden was re-evaluated quantitatively after 3 and 6 days of treatment, using the same technique as the one used for initial evaluation. Randomly picked mice from each group was subjected to histopathological evaluation, after 6 days of treatment. Blood from randomly sacrificed mice from each treatment group was analyzed for any changes in the serum liver (AST, ALT, ALP etc.) and kidney enzymes (BUN, glucose, creatinine etc) levels.
Statistical analysis was performed using a significance level set at 0.05 (α) and a significant group size (n=8). Initial infection and antifungal treatment efficacy were determined using analysis of variance (ANOVA), expressed as log10 cfu, and Scheffe's multiple comparison test was used to determine the differences between various treatment groups.

With GIGKFLHSAKKFGKAFVGEIMNS [Magainin-II], the “percent loss of cell viability” value is 99.06^± % in the series on C. glabrata ATCC90030 (PIC+); 0.00% with C. glabrata ATCC90030 (PIC−); 97.90% in the series on C. albicans ATCC96112 (PIC+); 7.17% with C. albicans ATCC96112 (PIC−); 100% in the series with C. krusei (PIC+); 0.00% with C. krusei (PIC−). In the series with S. mutans GS-5, the “reduction of the viable counts of S. mutans” value came to 3 log10. Also, the hemolysis in the series on Erythrocytes (IGP buffer) is recorded as 92%; in the series with Erythrocytes (PBS) it was 0%.

Take `[H]/N=C(\N/C(=N/[H])NCCCCCCNC(=N)NC(=N)Nc1ccc(Cl)cc1)Nc1ccc(Cl)cc1` [Chlorhexidine, Chlorhexidine digluconate]: the “reduction of the viable counts of S. mutans” value with S. mutans GS-5 was 1 log10.

AKRHHGYKRKFH [Hsn5 12-mer]: the “additional tissue change in tongue section” value in the series with C. albicans strain DIS is on record as “acanthosis of the stratum spinosum”.
